“Also recorded” adds a separate entry of the source.
How the values were obtained:
[1] = tested on: 15% E coli NfsA-expressing H1299 xenografts; test: Tumour growth delay, 15% E coli NfsA-expressing H1299 xenografts; assay type: in vivo, NIH-III mice; conditions: for tumour growth delay: mixed HCT116 and H1299 xenografts, 15% E coli NfsA cells, single (or BID) intraperitoneal dose
Protocol: (§1) Animals weighed 18-25 g at the time of tumour inoculation. Tumours were grown subcutaneously on the right flank of mice by inoculating cells grown in tissue culture (1×10^7 cells in 100 uL serum free α-MEM). Tumour sizes were monitored three times weekly using electronic callipers and treatments were initiated once tumour diameter reached ≥7 mm.
(§2) Tumour bearing mice were randomised into the appropriate treatment groups and tumour size and body weight recorded. Test compounds were formulated on the day of the experiment and kept in foil-wrapped tubes out of direct fluorescent light. If recruitment of animals occurred over multiple days, the drug stocks were aliquoted into tubes and frozen once at […] until required. Mice were treated with a single (or BID) dose of prodrug by intraperitoneal injection and thereafter tumour size and body weight was monitored every second day. Tumour volume was calculated as π (l×w×w)/6, where l is the major axis and w is the perpendicular minor axis. Animals were culled when they had reached the appropriate survival endpoint or when body weight loss exceeded 20% of the pre-treatment value.

[2] = tested on: 15% E coli NfsA-expressing HCT116 xenografts; test: Tumour growth delay, 15% E coli NfsA-expressing HCT116 xenografts; assay type: in vivo, NIH-III mice; conditions: single dose; 10, 22 and 60 at 1000, 422 and 1330 umol/kg
Protocol: as §1, §2

[3] = tested on: HCT116 MCLs with 3% E coli NfsA-expressing cells; test: MCL clonogenic bystander assay, HCT116 MCLs seeded with 3% E coli NfsA-expressing cells; assay type: cell-based, human; conditions: 97% wild type HCT116, 3% E coli NfsA-expressing cells
Protocol: (§3) In parallel, a three dimensional high-cell density multi-cellular layer (MCL) clonogenic assay was performed. 1×10^6 cells of either 100% HCT-116^WT or containing 97% WT with a minor 3% HCT-116^NTR cell population were seeded into a collagen-coated Teflon microporous membrane and left to grow for 3 days. MCLs were then exposed to prodrug for 5 h. After treatment, MCLs were enzyme dissociated, diluted in fresh medium and plated to determine clonogenic survival. To discriminate clonogenic activator (NTR+) from target (NTR−) colonies, cells were plated in non-selective medium (total cells) and medium containing 1 μM puromycin (activator cells). Colonies were grown for 10 days before staining. Colonies containing >50 cells were counted. A variation of this assay was also used to assess for evidence of AKR1C3-dependent cytotoxicity. Here either 100% HCT-116W^T or 100% HCT-116^AKR1C3 cells were seeded to provide MCLs that were then exposed to prodrug.

[4] = tested on: H1299 cells engineered to over-express E coli NfsA; test: Low cell density IC50 (SRB) assay, H1299 wild type versus E coli NfsA over-expressing cells; assay type: cell-based, human
Protocol: (§4) Compounds were subjected to testing, including low-cell density cytotoxicity assay. Cells (500 cells/well) were seeded in 96-well plates and exposed to prodrug for 4 h, washed, then left to grow for a further 5 days. The SRB assay was employed to determine IC50 values (concentration of prodrug required to inhibit proliferation by 50%). Parental HCT116 cells (HCT116 is a cell line derived from human colon cancer) and cells expressing the example nitroreductase gene nfsA from Escherichia coli were evaluated head-to-head. Parental H1299 cells (H1299 is a cell line derived from lung cancer) and cells expressing the example nitroreductase gene nfsA from Escherichia coli were evaluated head-to-head. Parental HCT116 cells and cells expressing human AKR1C3 were evaluated head-to-head. Parental H1299 cells and cells expressing human AKR1C3 were evaluated head-to-head. In a variation of these assays test compounds were assessed for their ability to give hypoxia-selective cell killing. Here wild type HCT116, H460 (H460 is a cell line derived from lung cancer), H1299 and SiHa cells (SiHa is a cell line derived from cervical cancer) were used in addition to HCT116 cells engineered to over express cytochrome P450 reductase (HCT116 POR), a human one-electron nitroreductase. Low-cell density cytotoxicity assays were performed as above under oxic conditions and compared to experiments where cells were shown 4 h of anoxia during the prodrug exposure period, before being washed free of prodrug and then left to grow for a further 5 days under oxic conditions, as above.

[5] = tested on: wild type SiHa tumour xenografts; test: Excision assay with and without radiation, wild type SiHa tumour xenografts; assay type: in vivo, NIH-III nude mice; conditions: for cell killing in combination with radiation versus radiation alone: HCT116 POR and wild type SiHa xenografts, 10 or 15Gy, single (or BID) intraperitoneal dose; for hypoxic cell kill in vivo (log cell kill): with or without 10Gy radiation, 22 at 422, 300 and 11 at 1330, 23 at 1000 umol/kg
Protocol: (§5) Tumours were grown subcutaneously in the flank of NIH-III mice by inoculating cells grown in tissue culture. Tumours were monitored using electronic calipers. When tumours reached treatment size, mice were randomized to treatment groups (five to seven per group). Compounds were given as single (or BID) intraperitoneal doses alone or 5 min after whole body irradiation (^60Co source). Eighteen hours after treatment, tumours were excised, weighed, minced, dissociated enzymatically, and plated to determine clonogenicity. Clonogens/gram of tissue were calculated relative to controls and effects of treatment were tested for significance (ANOVA with Dunnett's).

[6] = tested on: HCT116 cells engineered to over-express human aldo-ketoreductase 1C3 (AKR1C3); test: Low cell density IC50 (SRB) assay, HCT116 wild type versus AKR1C3 over-expressing cells; assay type: cell-based; conditions: 4 h exposure
Protocol: as §4

[7] = tested on: HCT116 MCLs over-expressing AKR1C3; test: Multicellular layer (MCL) clonogenic assay, HCT116 wild type versus AKR1C3 over-expressing MCLs; assay type: cell-based, human
Protocol: as §3

[8] = tested on: HCT116 POR cell line (over-expressing Cytochrome P450 reductase); test: Oxic versus anoxic low cell density IC50 assay, HCT116 POR cells; assay type: cell-based, human; conditions: HCT116 POR cell line compared with wild type
Protocol: as §4, with “Low-cell density cytotoxicity assays were performed as above under oxic conditions and compared to experiments where cells were shown 4 h of anoxia during the prodrug exposure period, before being washed free of prodrug and then left to grow for a further 5 days under oxic conditions, as above.” left out

[9] = tested on: HCT116 cells engineered to over-express E coli NfsA; test: Low cell density IC50 (SRB) assay, HCT116 wild type versus E coli NfsA over-expressing cells; assay type: cell-based, human
Protocol: as §4

[10] = tested on: HCT116, H460, H1299 and SiHa wild type cancer cell lines; test: Oxic versus anoxic low cell density IC50 assay, wild type cancer cell lines; assay type: cell-based, human; conditions: 4 h anoxia during prodrug exposure versus oxic
Protocol: as §4

[11] = tested on: bacterial nitroreductases from the NfsA and NfsB families; test: GFP SOS assay with nitroreductase over-expression library; assay type: cell-based, E. coli strain SOS-R4; conditions: single and poly mutated variants of NfsA_Ec, single-mutated variant of NfsA_Bs
[12] = tested on: H1299 cells engineered to over-express human aldo-ketoreductase 1C3 (AKR1C3); test: Low cell density IC50 (SRB) assay, H1299 wild type versus AKR1C3 over-expressing cells; assay type: cell-based; conditions: 4 h exposure
Protocol: as §4

[13] = tested on: bacterial nitroreductases from the NfsA and NfsB families; test: GFP SOS assay with nitroreductase over-expression library; assay type: cell-based, E. coli strain SOS-R4; conditions: 55 candidate nitroreductase library, 6 h challenge
Source text: The method employed the over-expression of a candidate nitroreductase gene from plasmid pUCX in an SOS reporter strain, as first described in Prosser et al., 2010, Biochem Pharmacol 79, 678-687. In order to enhance the sensitivity of the SOS reporter system, an sfiA::GFP reporter construct was integrated into a CDF-based plasmid (which contains a compatible origin of replication with pUCX) to give the pANODuet reporter plasmid for GFP screening. In addition, nfsA, nfsB, azoR, and nemA genes were deleted to minimise background metabolism, and the tolC gene deleted to minimise efflux of test compounds; this strain was designated SOS-R3. Further improvements were obtained by deleting the mdaB, ycaK, and yieF genes to minimise background metabolism, and by introducing transcriptional terminators to the pANODUET reporter plasmid. This final reporter strain was designated SOS-R4.
Stored glycerols of the 55-membered nitroreductase library in SOS-R4 were thawed and used to inoculate overnight cultures (Lysogeny Broth (LB) amended with 100 μg ml^−1 Ampicillin, 50 μg ml^−1 Spectinomycin, 0.4% glucose) that were incubated at 30° C., 200 rpm for 16 h. The next morning the GFP-SOS assay was commenced by inoculation of 195 μl fresh assay media (LB+100 μg ml^−1 Ampicillin, 50 μg ml^−1 Spectinomycin, 0.2% glucose, 50 μM IPTG) with 15 μl of overnight culture in individual wells of a 96-well plate. Plates were incubated at 30° C., 200 rpm for 2.5 h (pre-challenge period), following which cultures were diluted 1:2 by splitting 50:50 into fresh assay media (+DMSO to 0.5% final concentration) and fresh challenge media (assay media+drug to desired concentration, DMSO to 0.5% final concentration) to final volumes of 80 μl apiece in duplicate on a 384-well plate. Plates were incubated at 30° C., 200 rpm for 6 h (challenge period). GFP expression was determined at excitation 488 nm/emission 509 nm. Turbidity was determined by OD600 and fluorescence data from any replicates not found to be within 15% of the median culture turbidity were discarded.

[14] = tested on: HCT116 tumour xenografts over-expressing Cytochrome P450 reductase; test: Excision assay with and without radiation, HCT116 POR tumour xenografts; assay type: in vivo, mice; conditions: 1330 μmol/kg, with or without 15Gy radiation
Protocol: as §5

[15] = single dose, 10, 22, 60 and 11 at 750, 422, 1330 and 1330 umol/kg

With `CN(CCOP(=O)(O)O)C(=O)c1cc(N(CCBr)CCBr)c(S(C)(=O)=O)cc1[N+](=O)[O-]` [compound 10, 2-(5-(bis(2-bromoethyl)amino)-N-methyl-4-(methylsulfonyl)-2-nitrobenzamido)ethyl dihydrogen phosphate] the tumour growth delay [1] was “profound tumour growth delay”, the “E coli NfsA mediated anti-tumour efficacy (mean tumour volume)” value [1, 15] was “display significant E coli NfsA mediated anti-tumour efficacy” and the “E coli NfsA mediated anti-tumour efficacy (mean tumour volume)” value [2] was “display significant E coli NfsA mediated anti-tumour efficacy”.

For `CN1CCN(C(=O)c2cc(N(CCBr)CCBr)c(S(C)(=O)=O)cc2[N+](=O)[O-])CC1` [compound 22, (5-(bis(2-bromoethyl)amino)-4-(methylsulfonyl)-2-nitrophenyl)(4-methylpiperazin-1-yl)methanone], the “bystander cell killing in MCLs” value [3] was “display evidence of metabolism by the 3% E coli NfsA-expressing cells with bystander cell killing of the 97% non-expressing neighbour cells”, the “E coli NfsA-mediated cytotoxicity (IC50 wild type versus NfsA)” value [4] was “produce E coli NfsA-mediated cytotoxicity” and the “cell killing in combination with radiation versus radiation alone” value [5] was “increased cell killing above what could be achieved with radiation alone”. For the same compound, the “hypoxic cell kill in vivo (log cell kill)” value [5] was “significant hypoxic cell kill in vivo”, the “E coli NfsA mediated anti-tumour efficacy (mean tumour volume)” value ([1]; 500 umol/kg twice daily (BID), total 1000 umol/kg) was “display significant E coli NfsA mediated anti-tumour efficacy” and the tumour growth delay [1] was “profound tumour growth delay”. The “E coli NfsA mediated anti-tumour efficacy (mean tumour volume)” value [1, 15] was “display significant E coli NfsA mediated anti-tumour efficacy”, the “AKR1C3-mediated cytotoxicity (IC50 wild type versus AKR1C3)” value [6] was “less susceptible to AKR1C3-mediated cytotoxicity than PR-104A” and the “E coli NfsA mediated anti-tumour efficacy (mean tumour volume)” value [2] was “display significant E coli NfsA mediated anti-tumour efficacy”. For the same compound, the “AKR1C3-dependent clonogenic cell kill in MCLs” value [7] was “do not cause AKR1C3-dependant cytotoxicity”, the “Hypoxic Cytotoxicity Ratios (HCR)” value [8] was “Larger HCRs; also recorded: The degree of this effect was increased” and the “E coli NfsA-mediated cytotoxicity (IC50 wild type versus NfsA)” value [9] was “produce E coli NfsA-mediated cytotoxicity”. For the same compound, the hypoxia-dependent cytotoxicity [10] was “increased cytotoxicity in cells under hypoxia”, the “activity with mutated nitroreductase variants” value [11] was “demonstrated” and the “AKR1C3-mediated cytotoxicity (IC50 wild type versus AKR1C3)” value [12] was “less susceptible to AKR1C3-mediated cytotoxicity than PR-104A”. For the same compound, the “metabolism by bacterial nitroreductases (SOS response)” value [13] was “substrates for multiple wild type and mutant bacterial nitroreductases from the NfsA and NfsB families”.

For `CN(CCO)C(=O)c1cc(N(CCBr)CCBr)c(S(C)(=O)=O)cc1[N+](=O)[O-]` [compound 14, 5-(bis(2-bromoethyl)amino)-N-(2-hydroxyethyl)-N-methyl-4-(methylsulfonyl)-2-nitrobenzamide], the “bystander cell killing in MCLs” value [3] was “display evidence of metabolism by the 3% E coli NfsA-expressing cells with bystander cell killing of the 97% non-expressing neighbour cells”, the “E coli NfsA-mediated cytotoxicity (IC50 wild type versus NfsA)” value [4] was “produce E coli NfsA-mediated cytotoxicity” and the “AKR1C3-mediated cytotoxicity (IC50 wild type versus AKR1C3)” value [6] was “less susceptible to AKR1C3-mediated cytotoxicity than PR-104A”. The “AKR1C3-dependent clonogenic cell kill in MCLs” value [7] was “do not cause AKR1C3-dependant cytotoxicity”, the “Hypoxic Cytotoxicity Ratios (HCR)” value [8] was “Larger HCRs; also recorded: The degree of this effect was increased” and the “E coli NfsA-mediated cytotoxicity (IC50 wild type versus NfsA)” value [9] was “produce E coli NfsA-mediated cytotoxicity”. For the same compound, the hypoxia-dependent cytotoxicity [10] was “increased cytotoxicity in cells under hypoxia”, the “activity with mutated nitroreductase variants” value [11] was “demonstrated” and the “metabolism by bacterial nitroreductases (SOS response)” value [13] was “substrates for multiple wild type and mutant bacterial nitroreductases from the NfsA and NfsB families”.

In the case of `CS(=O)(=O)c1cc([N+](=O)[O-])c(C(=O)NCCOP(=O)(O)O)cc1N(CCBr)CCBr` [compound 300, 2-(5-(bis(2-bromoethyl)amino)-4-(methylsulfonyl)-2-nitrobenzamido)ethyl dihydrogen phosphate], the “cell killing in combination with radiation versus radiation alone” value [5] was “increased cell killing above what could be achieved with radiation alone”, the “hypoxic cell kill in vivo (log cell kill)” value [5] was “significant hypoxic cell kill in vivo” and the “hypoxic cell kill in vivo (log cell kill)” value [14] was “significant hypoxic cell kill in vivo”.

For `CS(=O)(=O)OCCN(CCBr)c1ccc([N+](=O)[O-])cc1C(=O)NCCOP(=O)(O)O` [compound 60, 2-((2-bromoethyl)(4-nitro-2-((2-(phosphonooxy)ethyl)carbamoyl)phenyl)amino)ethyl methanesulfonate], the tumour growth delay [1] was “profound tumour growth delay”, the “E coli NfsA mediated anti-tumour efficacy (mean tumour volume)” value [1, 15] was “display significant E coli NfsA mediated anti-tumour efficacy” and the “E coli NfsA mediated anti-tumour efficacy (mean tumour volume)” value [2] was “display significant E coli NfsA mediated anti-tumour efficacy”.
